Assay results as given in patent US7547804B2, “Compounds, compositions, and methods employing same” (Myriad Genetics, Inc., priority 2002, dated 2009).
pEC50: −log10 of the molar value.

What follows are compounds tested on LNCaP cell lines (assay: WST-1 Cell Proliferation and Viability Assay). Details: Homo sapiens; LNCaP cells, compound incubation 18-72 hours.
Format: cell-based
In short: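 LNCaP cells (5000/well, phenol-red-free RPMI-1640 with 10% FCS) were plated overnight, then exposed to compounds in 0.1% DMSO final for 18-72 hours at 37 °C. Viability was read by WST-1 conversion to formazan after 3 h further incubation, measured at A490-A650.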

SMILES | pEC50
O=C(Nc1cc(C(F)(F)F)ccc1OCCOc1ccccc1)c1cc(Cl)ccc1O [Compound 297] | 6.05
CCOCCOCCOc1ccc(C(F)(F)F)cc1NC(=O)c1cc(Cl)ccc1O [Compound 298] | 5.52
O=C(Nc1cc(C(F)(F)F)ccc1OCCOCCCl)c1cc(Cl)ccc1O [Compound 299] | 6.00
O=C(Nc1cc(C(F)(F)F)ccc1OCCOc1ccc(Cl)cc1)c1cc(Cl)ccc1O [Compound 300] | 6.00
CCCOCCOc1ccc(C(F)(F)F)cc1NC(=O)c1cc(Cl)ccc1O [Compound 301] | 6.17
COC(=O)C=Cc1ccccc1CCOc1ccc(Cl)cc1NC(=O)c1cc(Cl)ccc1O [Compound 302] | 5.52
COC(=O)CCc1ccccc1CCOc1ccc(Cl)cc1NC(=O)c1cc(Cl)ccc1O [Compound 303] | 5.48
Cc1cccc(COc2ccc(C(F)(F)F)cc2NC(=O)c2cc(Cl)ccc2O)c1 [Compound 307] | 5.74
COC(=O)C1CCCN(c2ccc(C(F)(F)F)cc2NC(=O)c2cc(Cl)ccc2O)C1 (stereo not shown) [Compound 315] | 5.92
O=C(NCc1ccc(F)c(C(F)(F)F)c1)c1cc(Cl)ccc1O [Compound 319] | 4.75
Nc1cc(Cl)cc(C(=O)Nc2cc(Cl)ccc2OCCc2ccccc2)c1O [Compound 330] | 4.71
Cc1ccc(COc2ccc(C(F)(F)F)cc2NC(=O)c2cc(Cl)ccc2O)cc1 [Compound 332] | 6.13
Cc1ccc(OCCc2cccc(C(F)(F)F)c2)cc1NC(=O)c1cc(Cl)ccc1O [Compound 333] | 5.59
O=C(Nc1cc(C(F)(F)F)ccc1OCc1cccc(OC(F)(F)F)c1)c1cc(Cl)ccc1O [Compound 334] | 5.05
COc1ccccc1CCOc1cccc(NC(=O)c2cc(-c3ccsc3)ccc2O)c1 [Compound 335] | 4.89
COc1ccccc1CCOc1cccc(NC(=O)c2cc(Cl)cc([N+](=O)[O-])c2O)c1 [Compound 336] | 4.55
COc1ccccc1CCOc1cccc(NC(=O)c2cc(-c3cc4ccccc4o3)ccc2O)c1 [Compound 339] | 5.10
COc1ccccc1CCOc1cccc(NC(=O)c2cc(-c3ccc(Cl)c(Cl)c3)ccc2O)c1 [Compound 341] | 5.05
COc1ccc(-c2ccc(O)c(C(=O)Nc3cccc(OCCc4ccccc4OC)c3)c2)cc1 [Compound 342] | 5.00
COc1ccccc1CCOc1cccc(NC(=O)c2cc(-c3ccccc3Oc3ccccc3)ccc2O)c1 [Compound 344] | 4.80
COc1ccccc1CCOc1cccc(NC(=O)c2cc(Br)cc(F)c2O)c1 [Compound 346] | 4.55
COc1ccccc1CCOc1cccc(NC(=O)c2cc(-c3ccc4c(c3)OCO4)ccc2O)c1 [Compound 348] | 4.77
COc1ccccc1CCOc1cccc(NC(=O)c2cc(-c3cccc(Cl)c3)ccc2O)c1 [Compound 349] | 5.00
O=C(Nc1ccc(NCCc2cccc(C(F)(F)F)c2)c(C(F)(F)F)c1)c1cc(Cl)ccc1O [Compound 363] | 5.40
COCCN(C)c1ccc(NC(=O)c2cc(Cl)ccc2O)cc1C(F)(F)F [Compound 365] | 5.70
CN(CC(=O)OC(C)(C)C)c1ccc(NC(=O)c2cc(Cl)ccc2O)c(OCCc2cccc(C(F)(F)F)c2)c1 [Compound 373] | 5.54
CN(CC(=O)O)c1ccc(NC(=O)c2cc(Cl)ccc2O)c(OCCc2cccc(C(F)(F)F)c2)c1 [Compound 375] | 4.72

The next lines start with the values.

pEC50 | SMILES
4.74 | O=C(NCc1cccc(-c2cccc(C(F)(F)F)c2)c1)c1cc(Cl)ccc1O [Compound 304]
5.70 | Cc1ccc(COc2ccc(Cl)cc2NC(=O)c2cc(Cl)ccc2O)cc1 [Compound 306]
6.08 | COC(=O)c1ccc(COc2ccc(C(F)(F)F)cc2NC(=O)c2cc(Cl)ccc2O)cc1 [Compound 308]
4.76 | CN1CCN(c2ccc(C(F)(F)F)cc2NC(=O)c2cc(Cl)ccc2O)CC1 [Compound 309]
5.52 | Cc1cccc(COc2ccc(Cl)cc2NC(=O)c2cc(Cl)ccc2O)c1 [Compound 311]
6.07 | Cc1ccccc1COc1ccc(C(F)(F)F)cc1NC(=O)c1cc(Cl)ccc1O [Compound 312]
5.52 | Cc1ccccc1COc1ccc(Cl)cc1NC(=O)c1cc(Cl)ccc1O [Compound 313]
4.76 | O=C(NCc1cc(F)cc(C(F)(F)F)c1)c1cc(Cl)ccc1O [Compound 320]
5.48 | COC(=O)c1ccc(OCCc2ccccc2)c(NC(=O)c2cc(Cl)ccc2O)c1 [Compound 325]
5.21 | COC(=O)CCc1ccc(OCCc2ccccc2)c(NC(=O)c2cc(Cl)ccc2O)c1 [Compound 326]
5.68 | O=C(Nc1cc(C(F)(F)F)ccc1OCc1cccc(C(F)(F)F)c1)c1cc(Cl)ccc1O [Compound 327]
5.80 | O=C(Nc1cc(Cl)ccc1OCc1ccc(C(F)(F)F)cc1)c1cc(Cl)ccc1O [Compound 328]
5.66 | O=C(Nc1cc(Cl)ccc1OCc1cccc(C(F)(F)F)c1)c1cc(Cl)ccc1O [Compound 329]
4.91 | O=CNc1cc(Cl)cc(C(=O)Nc2cc(Cl)ccc2OCCc2ccccc2)c1O [Compound 331]
4.72 | COc1ccccc1CCOc1cccc(NC(=O)c2cc(Cl)ccc2NS(C)(=O)=O)c1 [Compound 337]
5.15 | COc1ccccc1CCOc1cccc(NC(=O)c2cc(-c3cccc4ccccc34)ccc2O)c1 [Compound 338]
4.80 | COc1ccccc1CCOc1cccc(NC(=O)c2cc(-c3ccc(C)cc3)ccc2O)c1 [Compound 340]
4.77 | COc1ccccc1CCOc1cccc(NC(=O)c2cc(-c3ccccc3OC)ccc2O)c1 [Compound 343]

pEC50 | SMILES
5.05 | COc1ccccc1CCOc1cccc(NC(=O)c2cc(-c3cccc(C(C)C)c3)ccc2O)c1 [Compound 345]
5.22 | COc1ccccc1CCOc1cccc(NC(=O)c2cc(-c3ccc4ccccc4c3)ccc2O)c1 [Compound 347]
5.00 | COc1ccccc1CCOc1cccc(NC(=O)c2cc(-c3ccccc3Cl)ccc2O)c1 [Compound 350]
4.96 | COc1ccccc1CCOc1cccc(NC(=O)c2cc(-c3ccc(Cl)cc3)ccc2O)c1 [Compound 351]
5.15 | COc1ccccc1CCOc1cccc(NC(=O)c2cc(-c3cccc(C(F)(F)F)c3)ccc2O)c1 [Compound 352]
5.14 | COc1ccccc1CCOc1cccc(NC(=O)c2cc(-c3cc4ccccc4s3)ccc2O)c1 [Compound 354]
4.82 | COc1ccccc1CCOc1cccc(NC(=O)c2cc(Cl)c(F)cc2O)c1 [Compound 355]
4.80 | COc1ccccc1CCOc1cccc(NC(=O)c2cc(-c3cccs3)ccc2O)c1 [Compound 356]
4.79 | CN1CCN(c2ccc(NC(=O)c3cc(Cl)ccc3O)c(OCCc3cccc(C(F)(F)F)c3)c2)CC1 [Compound 358]
5.51 | COC(=O)[C@H]1CCCN1c1ccc(NC(=O)c2cc(Cl)ccc2O)c(OCCc2cccc(C(F)(F)F)c2)c1 [Compound 359]
5.62 | CCN(CC)c1ccc(NC(=O)c2cc(Cl)ccc2O)c(OCCc2cccc(C(F)(F)F)c2)c1 [Compound 360]
5.10 | CCN(CC)CCN(CC)c1ccc(NC(=O)c2cc(Cl)ccc2O)c(OCCc2cccc(C(F)(F)F)c2)c1 [Compound 361]
5.15 | CN(CCc1ccccn1)c1ccc(NC(=O)c2cc(Cl)ccc2O)cc1C(F)(F)F [Compound 364]
5.40 | COCCN(C)c1ccc(NC(=O)c2cc(Cl)ccc2O)c(OCCc2cccc(C(F)(F)F)c2)c1 [Compound 369]
5.70 | CN(CC(=O)OC(C)(C)C)c1ccc(NC(=O)c2cc(Cl)ccc2O)cc1C(F)(F)F [Compound 372]
5.14 | CN(CCc1ccccn1)c1ccc(NC(=O)c2cc(Cl)ccc2O)c(OCCc2cccc(C(F)(F)F)c2)c1 [Compound 376]
5.40 | CCN(Cc1ccncc1)c1ccc(NC(=O)c2cc(Cl)ccc2O)c(OCCc2cccc(C(F)(F)F)c2)c1 [Compound 377]

Same assay, conditions: Homo sapiens; LNCaP cells; flagged "Estimated": based on actual data at different concentrations

SMILES | pEC50
O=C(Nc1cc(C(F)(F)F)ccc1N1CCCC(C(=O)O)C1)c1cc(Cl)ccc1O (stereo not shown) [Compound 316] | 4.40
COc1ccccc1CCOc1cccc(NC(=O)c2cccc(F)c2O)c1 [Compound 353] | 4.60

The next lines start with the values.

pEC50 | SMILES
4.52 | COc1cccc(-c2cccc(CNC(=O)c3cc(Cl)ccc3O)c2)c1 [Compound 317]
4.40 | O=C(NCc1cc(C(F)(F)F)ccc1Cl)c1cc(Cl)ccc1O [Compound 318]
4.52 | Cc1cc(C)cc(CNC(=O)c2cc(Cl)ccc2O)c1 [Compound 323]
